Residues, ends and D or L forms follow the SMILES beside them. *: point of attachment. OiPr = CC(C)O*
SMILES	melting point [°C]
Nc1cc(Cl)nc(SC/C=C/C(=O)N2CCCC2)n1	178 to 180
CCCCCCCCCCCCCCCC(=O)OCC(COC(=O)CCCCCCCCCCCCCCC)OCn1cnc2c(=O)[nH]c(N)nc21	150 to 154
CC(C)[C@H](NC(=O)N(C)Cc1cccnc1)C(=O)N[C@@H](Cc1ccccc1)C[C@H](O)[C@H](Cc1ccccc1)NC(=O)[C@@H](NC(=O)N(C)Cc1cccnc1)C(C)C	193 to 196
CCCCNc1ccc2n[nH]c(=O)n2n1	259 to 261
CCCCOc1ccc(S(=O)(=O)NC(=O)c2ccc(C(=O)OC)nc2)cc1	174 to 176
COC1C(Oc2ccc(N)cc2)OC(CO)C(OC2OC(CO)C(O)C(OC)C2O)C1O (configuration not stated)	105
CN1CCCC1=NC(=O)Nc1cc(Cl)ccc1Cl	148 to 150
CCC(Oc1ccc(C(C)(C)CC)cc1C(C)(C)CC)C(=O)Nc1cc(Cl)c2[nH]c(=O)[nH]c2c1O (configuration not stated)	201 to 204
CCCCc1c2c(nc3cc(F)cc(F)c13)-c1cc3c(c(=O)n1C2)COC(=O)CC3(O)CC (configuration not stated)	190
CCCCC[C@H]1CC[C@H](c2ccc(CC(=O)OCc3ccc(C#N)cc3)cc2)CC1	85
CC1(C)Oc2cc3c(cc2O1)OC(C)(C)O3	122
COC(Cc1nsc(N)n1)OC	62 to 66.5
CCn1c(=O)n(C2OC(CO)C(O)C2O)c2nc(N)[nH]c(=O)c21 (configuration not stated)	185 to 187
OC(CNC1CC1)c1ccc(Br)cc1 (configuration not stated)	105 to 107
CC(C)OC(=O)C(CO)NC(=O)C(CC(=O)O)NC(=O)C(C)N (stereo not drawn) (H-Ala-Asp-Ser-OiPr; configuration not given here)	222 to 234
COC(=O)c1ccc(/C=C/C(=O)O)s1	180
COc1cc(OC)nc(NS(=O)(=O)C(C(N)=O)C(C)C)n1 (configuration not stated)	147 to 150
CP(C)(=O)C(CC(=O)O)C(=O)O (configuration not stated)	174 to 177
COc1cc(C=O)cc(OC)c1Cl	112 to 113
CC1CCC(C(C)C)C(OC(=O)c2ccc(N)cc2O)C1 (configuration not stated)	187 to 189
COc1cccc(N2CCC(NC(C)=O)CC2)n1	125 to 127
CCCCCCCCCCCCCCOc1ccc(CN)cc1	62 to 64
CN(C)C1CCC(c2c[nH]c3ccc(NC(=N)c4cccs4)cc23)CC1 (configuration not stated)	104 to 106

SMILES	melting point [°C]
COC(=O)c1cc(Br)n2c1CN(C(=O)OC(C)(C)C)CC2	109
Cc1c(CC(=O)O)oc2ccc(F)cc12	129 to 130
CCCc1cc(Cl)c2oc(C(=O)OCC)c(C)c2c1O	165 to 166
SCC1SC(CS)SC(CS)S1 (configuration not stated)	42 to 46
COC(=O)c1c(C)c(OC)cc(OC)c1C=O	164 to 165
CC(C)(C)C(=O)Nc1cccc(-c2ccnc3c(C(=O)c4ccco4)cnn23)c1	203 to 204
CN1CC(Cn2ccnc2-c2ccccc2)CC2c3cccc4[nH]cc(c34)CC21 (configuration not stated)	193 to 195
O=c1c2ncn(COCCO)c2nc2[nH]c(-c3ccc(Cl)s3)cn12	226 to 228
CC(C)c1ccc(NC=CS(=O)(=O)F)cc1	41 to 43
CC(C)(C)OC(=O)N1CC2CC(CN(CC(O)COc3ccccc3)C2)C1 (configuration not stated)	86 to 88
CN1Cc2c(C#N)ncn2-c2ccc(Cl)cc2C1=O	272 to 275
CC(=O)NCCO[C@H]1COc2ccc3cnn(C[C@@H](C)O)c3c2C1	165 to 166
CC(=O)S[C@@H]1CCO[C@@H](/C(C)=C/c2ccc(C(F)(F)F)cc2)O1 (relative stereo)	128 to 129
NS(=O)(=O)c1ccc(-c2ccc(F)cc2F)cc1	143
C=C1COc2c(N3CCN(C)CC3)c(F)cc3c(=O)c(C(=O)O)cn1c23	200 to 201
CNc1ccc([N+](=O)[O-])cc1N	171 to 173
COc1ccc2c(c1)C(=O)N(CCN(C)CCN1C(=O)c3cc(OC)c(OC)cc3C(C)(C)C1=O)C(=O)C2(C)C	118 to 120
CC(C)C(NC(=O)OCCN1CCOCC1)C(=O)NC(Cc1ccccc1)C(O)C(Cc1ccccc1)NC(=O)C(NC(=O)OCCN1CCOCC1)C(C)C (configuration not stated)	122 to 123
CC(C)(C)OC(=O)C1CCCC(c2ccccc2)N1 (configuration not stated)	68
CCn1cc(C(=O)O)c(=O)c2c(F)c(F)c(N3CCN(C)CC3)c(F)c21	221 to 223
NC(=O)OCCN1Cc2ccccc2CCO1	110 to 111
CCOC(=O)C#CC(OC(N)=O)c1ccccc1 (configuration not stated)	82

Results, then the compound that gave them:

melting point [°C]	SMILES
61 to 62	O=C(Cc1ccccc1)c1cccnc1
155 to 156	Cc1ccccc1-c1nnc(N2CCC(O)CC2)nc1-c1ccccc1C
110	OC1CSC(Oc2cccnc2-c2ccc(F)cc2)C(O)C1O (configuration not stated)
139 to 141	COc1cc(OC)cc(-c2ccc(N(C)CCN(C)c3ccc(-c4cc(OC)cc(OC)c4)nc3)cn2)c1
195 to 196	CC1(C)Oc2cc3nonc3cc2C(N2CCC(O)C2=O)C1O (configuration not stated)
140 to 142	NC1=NS(=O)N=C1NCCCN(Cc1ccsc1)c1ccccn1 (configuration not stated)
206 to 207	CC(=O)OCc1coc(-c2cccc(C3=Nc4ccc(-n5cccc5)cc4NC(=O)C3)c2)n1
151 to 154	CC(C)OC(=O)N1CCC(c2nc3cc(-c4ccc(C(F)F)cc4)ccc3o2)CC1
220 to 222	O=C(O)C1=Cc2cc(Cl)c(Oc3ccccc3)cc2OC1C(F)(F)F (configuration not stated)
52 to 56	Cc1ccccc1C(Oc1cc(OCc2ccc3c(c2)OCO3)ccc1C#N)C(=O)O (racemic)
155 to 159	O=c1c2cc(SC(F)(F)F)ccc2ccn2cccc12
95 to 113	CCCNC(=O)C(C)Cc1ccc2c(c1)c(Cc1ccc(C(=O)NS(=O)(=O)c3ccccc3C)cc1OC)cn2CCC (configuration not stated)
90 to 91	C[C@H](C#Cc1ccc(COCc2ccc(F)cc2)s1)N(O)C(N)=O
133 to 134	O=C1c2ccccc2C(=O)N1CSc1ccncc1
52	CN(C)CCCn1c(-c2ccccc2)cc2ccccc21
213 to 215	Cc1noc(C)c1COCCn1cnc2c(N)nc3ccccc3c21
135 to 140	CCc1nc(C)c(C(=O)OC(C)OC(=O)C(C)(C)OC)n1Cc1ccc2oc(-c3ccccc3-c3nnn[nH]3)c(Br)c2c1 (configuration not stated)
148 to 152	Cc1nc(C(F)(F)F)c(C(=O)Nc2ccccc2-c2cc(F)c(F)c(F)c2)s1
225 to 227	CCCc1ccc2ncc(C(=O)NCc3ccc(Cl)cc3)c(O)c2c1
141 to 142	Cc1cc(-n2nc(C(F)F)cc2-c2ccc(S(C)(=O)=O)cc2)ccc1Br
126 to 127	CCC(=O)c1ccc(-c2ncccc2S(=O)(=O)Nc2ncc(C)nc2OC)cc1
135 to 136	NC(=O)CNC(=O)c1cccc(-c2cccc3cc(Cc4cccc(C(F)(F)F)c4)sc23)c1F
175 to 176	CC(C)C[C@H](NC(=O)OCC1c2ccccc2-c2ccccc21)C(=O)N[C@H]1CCOC1=O
190	OC[C@@H]1Cc2ccccc2CN1C(=S)Nc1cccc2cnccc12
127 to 135	Cc1noc(NS(=O)(=O)c2ccccc2-c2ccc(-c3ncco3)cc2CN2CCc3ccccc3C2=O)c1C
150 to 153	Nc1nc2ccccc2c2c1ncn2CCCCNC(=O)c1ccc(Cn2c(N3CCCC3)nc3ccccc32)cc1

melting point [°C]	SMILES
151 to 153	COc1ccc(NCCCCNC(C)=O)c2c1C(=O)c1ccccc1C2=O
175 to 176	O=[N+]([O-])c1cnc2cc3c(cc2c1-c1ccccc1Cl)CCC3
125 to 127	O=C(Nc1c(Cl)cccc1Cl)N(Cc1ccccc1)CC1(c2ccccc2)CCCC1
132 to 134	Cc1cccc(N2CCN(Cc3n[nH]c4ccccc34)CC2)c1
153	CP(C)(=O)C1CC(c2ccccc2)=NO1 (configuration not stated)
173 to 175	COc1cc2oc(=O)c3c(c2cc1OC)CCN(Cc1ccc(Cl)cc1)C3
204 to 205	CC(C)n1nc(-c2sc(C(=O)NCc3ccccn3)nc2-c2ccc(F)cc2)ccc1=O
275 to 278	CCn1c(=O)c(-c2c(Cl)cccc2Cl)cc2cnc(Nc3cc(OC)c(OC)c(OC)c3)nc21
214 to 218	NS(=O)(=O)c1ccc(-n2ccc(C(F)F)n2)c(-c2ccc3c(c2)OCO3)c1
154 to 157	Nc1ccc(Nc2cc3c(cc2Nc2ccc(N)cc2)C(=O)NC3=O)cc1
186 to 187	COc1ccc(C(=O)O)cc1Oc1ccccc1
202 to 206	CC(=O)SCC(Cc1ccccc1)C(=O)Nc1cc(C(=O)O)ccc1O (configuration not stated)
226 to 228	O=C(CN1CCSCC1)N1CCN(Cc2ccc3c(c2)-c2[nH]nc(-c4ccsc4)c2C3)CC1
84 to 86	CCOC(=O)c1c2ccc(Cl)cc2c(-c2ccccc2)n1CCN
237 to 241	Cc1ccc(C(=O)C2=C(O)C(=O)N(c3ncc(S(=O)(=O)N(C)C)s3)C2c2ccc(C(C)C)cc2)cc1 (configuration not stated)
137	CCCCOC(=O)NCCc1nc(-c2ccc(-c3ccccc3)cc2)c[nH]1
> 250	Fc1cccc2c1[nH]c1c2ccc2cc[nH]c21
121 to 122	COc1cc(C(=O)NCCc2ccccc2)cc([N+](=O)[O-])c1OC
214 to 215	CCSc1nc2c(C(=O)OC)sc(-c3ccccc3)c2[nH]1
90 to 92	CNC(=O)C(=O)CCCCCCc1cnc(-c2ccc(Br)cc2)o1
97 to 105	CCOC(=O)CCN(Cc1ccc(OC)c(OC)c1)C(=O)CN(C)C(=O)Cc1ccc(NC(=O)Nc2ccccc2C)c(OC)c1
150	COc1ccc(-c2nc(CCCCCc3nnn[nH]3)oc2-c2ccc(OC)cc2)cc1
122 to 124	Cc1cccc(CN(CCC(=O)O)c2nc(NC(=O)Nc3ccccc3O)nc(Nc3ccccc3-c3ccccc3)n2)c1
176 to 180	OC(c1ccc(Cl)cc1)c1cc2ccncc2[nH]1 (configuration not stated)
179 to 181	C[C@@H]1S[C@@H](C(=O)Nc2ccc(CN3CCSC3)cc2)Cc2cc3c(cc2C1=O)OCO3
40 to 42	CCOc1nc(NCc2ccc(C)o2)nc(Nc2ccc(O)cc2)n1
